Experimental findings from US7572801B2, “Pyridopyrimidinone derivatives which are HM74A agonists” (Hoffmann-La Roche Inc., priority 2007, dated 2009) are described below.

In this test the target is T1, HM74A (Homo sapiens, UniProt Q8TDS4).
T1 construct: expressed in transfected cells; host or cells: HEK-293, stably transfected (pcDNA3.1 vectors), co-expressing chimeric G protein Gqi9
T1 sequence (Q8TDS4 whole entry): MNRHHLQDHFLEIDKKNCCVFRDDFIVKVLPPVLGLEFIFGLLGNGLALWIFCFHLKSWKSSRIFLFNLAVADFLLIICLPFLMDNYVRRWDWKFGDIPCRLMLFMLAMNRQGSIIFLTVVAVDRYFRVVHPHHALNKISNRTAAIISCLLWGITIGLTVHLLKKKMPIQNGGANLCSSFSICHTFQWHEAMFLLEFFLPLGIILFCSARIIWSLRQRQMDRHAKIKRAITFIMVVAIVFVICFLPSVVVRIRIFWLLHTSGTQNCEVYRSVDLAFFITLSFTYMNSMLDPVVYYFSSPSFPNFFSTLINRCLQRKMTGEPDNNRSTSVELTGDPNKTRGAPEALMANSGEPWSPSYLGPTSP
The experiment in a line: Secondary fluorescent calcium indicator assay (FLIPR). To be noted: stable transfected HEK-293 cells expressing HM74A and chimeric G protein Gqi9. Format: cell-based. On the procedure: Secondary Fluorescent Calcium Indicator Assay (FLIPR)
HEK-293 cells were grown in tissue culture medium (DMEM/Nut mix F12 Medium with Glutamax I (Invitrogen), containing 10% FBS) at 37° C. in a 5% CO2 atmosphere. These cells were cultured in 6-well dishes at 3×10^5 cells/well and double transfected with DNA vectors (pcDNA3.1, Invitrogen) expressing either HM74A or HM74 and the chimeric G protein Gqi9. Two days after transfection the wells were combined and plated in 150 cm^2 flasks, in the presence of 50 μg/ml Hygromycin (Invitrogen) and 500 μg/ml Geneticin (Gibco). Fourteen days after plating, colonies were picked, expanded and analyzed for expression using a functional assay (FLIPR). Stable transfected HEK-293 cells expressing either HM74A or HM74 and the chimeric G protein Gqi9 were plated at 50,000 cells/well in black 96-well plates with clear bottom (Costar) and cultured to confluency overnight in growth media (DMEM/Nut mix F12 Medium with Glutamax I (Invitrogen), containing 10% FBS) at 37° C. in a humidified cell incubator containing 5% CO2. Growth media was aspirated and replaced with 100 μl of 1× FLIPR Calcium Assay Dye (Molecular Devices) in Hank's balanced salt solution (HBSS) containing 10 mM HEPES, and […] probenecid (Sigma), for 1 hour at 37° C. Cell plates were transferred to a FLIPR unit (Molecular Devices), and 50 μl of 3× compound dilution were added. Fluorescence emissions were measured and the effects of compounds were expressed as % stimulation of maximal nicotinic acid response (100 μM). Sigmoidal curves were fitted using the XLfit3 program (ID Business Solutions Ltd. UK) and EC50 values determined.
As for `O=c1[nH]c(COc2ccccc2)nc2ncccc12` [Example 2, 2-Phenoxymethyl-3H-pyrido[2,3-d]pyrimidin-4-one], the half-maximal effective concentration (EC50) came to 5710 nM.
To `Cc1ccccc1OCCCOc1nc2ncccc2c(=O)[nH]1` [Example 58, 2-(3-o-Tolyloxy-propoxy)-3H-pyrido[2,3-d]pyrimidin-4-one] belongs 426 nM; to `COc1ccc(CCCOc2nc3ncccc3c(=O)[nH]2)cc1` [Example 28, 2-[3-(4-Methoxy-phenyl)-propoxy]-3H-pyrido[2,3-d]pyrimidin-4-one], 2710 nM.
